Assay results: patent US11274083B2, “Substituted thiophenyl uracils, salts thereof and the use thereof as herbicidal agents” (Syngenta Crop Protection AG, priority 2017, dated 2022)
Blank lines part the entries; values can stand above or below the molecule they belong to.

Columns and labels:
Type in all cases: in vivo
Oryza sativa = test: Crop compatibility post-emergence, greenhouse pot test; conditions: application rate 20 g/ha
Description: (§1) Seeds of mono- and dicotyledonous weed plants and crop plants were laid out in sandy loam soil in plastic or wood-fiber pots, covered with soil and grown under controlled growth conditions in a greenhouse. 2 to 3 weeks after sowing, the trial plants were treated at the one-leaf stage. The compounds of the invention formulated in the form of wettable powders (WP) or as emulsion concentrates (EC) were then sprayed onto the green parts of the plant as an aqueous suspension or emulsion with addition of 0.5% additive at a water application rate equivalent to 600 L/ha. After the trial plants had stood for about 3 weeks in the greenhouse, under optimal growth conditions, the effect of the preparations was scored visually by comparison with untreated controls. For example, 100% efficacy=plants have died, 0% efficacy=like control plants.
(§2) Crop plant compatibilities were also scored correspondingly.
(§3) The effects observed are reported here on selected crop plants by comparison, with the untreated controls (values in %).

Abutilon theophrasti = test: Herbicidal action post-emergence, greenhouse pot test; conditions: application rate 20 g/ha
Description: as §1, with “plants. Tables A1 to A16 below show the efficacies of selected compounds of the general formula (I) according to tables I.1 to I.50 on various harmful plants and an application rate corresponding to 80 g/ha or lower that were obtained by the aforementioned trial method.” for “plants.”

Stellaria media = test: as above; conditions: application rate 20 g/ha
Description: as §1, with “plants. Tables A1 to A16 below show the efficacies of selected compounds of the general formula (I) according to tables I.1 to I.50 on various harmful plants and an application rate corresponding to 80 g/ha or lower that were obtained by the aforementioned trial method.” for “plants.”

Veronica persica = test: as above
Description: as §1, with “plants. Tables A1 to A16 below show the efficacies of selected compounds of the general formula (I) according to tables I.1 to I.50 on various harmful plants and an application rate corresponding to 80 g/ha or lower that were obtained by the aforementioned trial method.” for “plants.”

Viola tricolor = test: as above; conditions: application rate 20 g/ha
Description: as §1, with “plants. Tables A1 to A16 below show the efficacies of selected compounds of the general formula (I) according to tables I.1 to I.50 on various harmful plants and an application rate corresponding to 80 g/ha or lower that were obtained by the aforementioned trial method.” for “plants.”

Triticum aestivum = test: Crop compatibility post-emergence, greenhouse pot test; conditions: application rate 20 g/ha
Description: as §1, §2, §3

Amaranthus retroflexus = test: Herbicidal action post-emergence, greenhouse pot test; conditions: application rate 20 g/ha
Description: as §1, with “plants. Tables A1 to A16 below show the efficacies of selected compounds of the general formula (I) according to tables I.1 to I.50 on various harmful plants and an application rate corresponding to 80 g/ha or lower that were obtained by the aforementioned trial method.” for “plants.”

Echinochloa crus-galli = test: as above; conditions: application rate 20 g/ha
Description: as §1, with “plants. Tables A1 to A16 below show the efficacies of selected compounds of the general formula (I) according to tables I.1 to I.50 on various harmful plants and an application rate corresponding to 80 g/ha or lower that were obtained by the aforementioned trial method.” for “plants.”

Polygonum convolvulus = test: as above; conditions: application rate 20 g/ha
Description: as §1, with “plants. Tables A1 to A16 below show the efficacies of selected compounds of the general formula (I) according to tables I.1 to I.50 on various harmful plants and an application rate corresponding to 80 g/ha or lower that were obtained by the aforementioned trial method.” for “plants.”

Pharbitis purpurea = test: as above
Description: as §1, with “plants. Tables A1 to A16 below show the efficacies of selected compounds of the general formula (I) according to tables I.1 to I.50 on various harmful plants and an application rate corresponding to 80 g/ha or lower that were obtained by the aforementioned trial method.” for “plants.”

Setaria viridis = test: as above; conditions: application rate 20 g/ha
Description: as §1, with “plants. Tables A1 to A16 below show the efficacies of selected compounds of the general formula (I) according to tables I.1 to I.50 on various harmful plants and an application rate corresponding to 80 g/ha or lower that were obtained by the aforementioned trial method.” for “plants.”

Digitaria sanguinalis = test: as above; conditions: application rate 20 g/ha
Matricaria inodora = test: as above; conditions: application rate 20 g/ha
Description: as §1, with “plants. Tables A1 to A16 below show the efficacies of selected compounds of the general formula (I) according to tables I.1 to I.50 on various harmful plants and an application rate corresponding to 80 g/ha or lower that were obtained by the aforementioned trial method.” for “plants.”

Oryza sativa (Efficacy in %) (Oryza sativa): 0%
SMILES: CCOC(=O)COC(=O)C(Sc1cc(-n2c(=O)cc(C(F)(F)F)n(C)c2=O)c(F)cc1Cl)C(C)C (centres unmarked) [I.6-43, 2-Ethoxy-2-oxoethyl 2-({2-chloro-4-fluoro-5-[3-methyl-2,6-dioxo-4-(trifluoromethyl)-3,6-dihydropyrimidin-1(2H)-yl]phenyl}sulfanyl)-3-methylbutanoate]
Abutilon theophrasti (Efficacy in %) (Abutilon theophrasti): 100%
Stellaria media (Efficacy in %) (Stellaria media): 90%
Veronica persica (Efficacy in %) (Veronica persica; application rate 5 g/ha): 100%
Viola tricolor (Efficacy in %) (Viola tricolor): 100%

Oryza sativa (Efficacy in %) (Oryza sativa): 0%
Triticum aestivum (Efficacy in %) (Triticum aestivum): 20%
SMILES: CCOC(=O)CCOC(=O)C(CC)Sc1cc(-n2c(=O)c(C)c(C(F)(F)F)n(C)c2=O)c(F)cc1Cl (centres unmarked) [I.12-3]
Abutilon theophrasti (Efficacy in %) (Abutilon theophrasti): 100%
Amaranthus retroflexus (Efficacy in %) (Amaranthus retroflexus): 100%
Echinochloa crus-galli (Efficacy in %) (Echinochloa crus-galli): 100%
Stellaria media (Efficacy in %) (Stellaria media): 100%
Polygonum convolvulus (Efficacy in %) (Polygonum convolvulus): 100%
Veronica persica (Efficacy in %) (Veronica persica; application rate 20 g/ha): 100%
Pharbitis purpurea (Efficacy in %) (Pharbitis purpurea; application rate 5 g/ha): 100%
Viola tricolor (Efficacy in %) (Viola tricolor): 100%
Setaria viridis (Efficacy in %) (Setaria viridis): 100%
Digitaria sanguinalis (Efficacy in %) (Digitaria sanguinalis): 100%

SMILES: CCOC(=O)C1(COC(=O)C(C)Sc2cc(-n3c(=O)cc(C(F)(F)F)n(C)c3=O)c(F)cc2Cl)CCOCC1 (centres unmarked) [I.1-293]
Abutilon theophrasti (Efficacy in %) (Abutilon theophrasti): 100%
Amaranthus retroflexus (Efficacy in %) (Amaranthus retroflexus): 100%
Echinochloa crus-galli (Efficacy in %) (Echinochloa crus-galli): 90%
Stellaria media (Efficacy in %) (Stellaria media): 100%
Veronica persica (Efficacy in %) (Veronica persica; application rate 20 g/ha): 100%
Viola tricolor (Efficacy in %) (Viola tricolor): 100%
Setaria viridis (Efficacy in %) (Setaria viridis): 90%
Matricaria inodora (Efficacy in %) (Matricaria inodora): 100%
Digitaria sanguinalis (Efficacy in %) (Digitaria sanguinalis): 100%

Oryza sativa (Efficacy in %) (Oryza sativa): 10%
Triticum aestivum (Efficacy in %) (Triticum aestivum): 10%
SMILES: CCOC(=O)COC(=O)C(CC(C)C)Sc1cc(-n2c(=O)cc(C(F)(F)F)n(C)c2=O)c(F)cc1Cl (centres unmarked) [I.4-43]
Abutilon theophrasti (Efficacy in %) (Abutilon theophrasti): 100%
Amaranthus retroflexus (Efficacy in %) (Amaranthus retroflexus): 100%
Stellaria media (Efficacy in %) (Stellaria media): 80%
Polygonum convolvulus (Efficacy in %) (Polygonum convolvulus): 100%
Veronica persica (Efficacy in %) (Veronica persica; application rate 20 g/ha): 100%
Viola tricolor (Efficacy in %) (Viola tricolor): 100%
Matricaria inodora (Efficacy in %) (Matricaria inodora): 90%

Oryza sativa (Efficacy in %) (Oryza sativa): 20%
SMILES: CCOC(=O)CCOC(=O)C(Sc1cc(-n2c(=O)cc(C(F)(F)F)n(C)c2=O)c(F)cc1Cl)C(C)C (centres unmarked) [I.6-3, 3-Ethoxy-3-oxopropyl 2-({2-chloro-4-fluoro-5-[3-methyl-2,6-dioxo-4-(trifluoromethyl)-3,6-dihydropyrimidin-1(2H)-yl]phenyl}sulfanyl)-3-methylbutanoate]
Abutilon theophrasti (Efficacy in %) (Abutilon theophrasti): 100%
Amaranthus retroflexus (Efficacy in %) (Amaranthus retroflexus): 100%
Stellaria media (Efficacy in %) (Stellaria media): 100%
Veronica persica (Efficacy in %) (Veronica persica; application rate 20 g/ha): 100%
Viola tricolor (Efficacy in %) (Viola tricolor): 100%
Setaria viridis (Efficacy in %) (Setaria viridis): 100%
Matricaria inodora (Efficacy in %) (Matricaria inodora): 100%
Digitaria sanguinalis (Efficacy in %) (Digitaria sanguinalis): 100%

Oryza sativa (Efficacy in %) (Oryza sativa): 0%
Triticum aestivum (Efficacy in %) (Triticum aestivum): 20%
SMILES: CCC(Sc1cc(-n2c(=O)cc(C(F)(F)F)n(C)c2=O)c(F)cc1Cl)C(=O)OCC1CCC(=O)O1 (centres unmarked) [I.2-145, (5-Oxotetrahydrofuran-2-yl)methyl 2-({2-chloro-4-fluoro-5-[3-methyl-2,6-dioxo-4-(trifluoromethyl)-3,6-dihydropyrimidin-1(2H)-yl]phenyl}sulfanyl)butanoate]
Abutilon theophrasti (Efficacy in %) (Abutilon theophrasti): 100%
Amaranthus retroflexus (Efficacy in %) (Amaranthus retroflexus): 100%
Echinochloa crus-galli (Efficacy in %) (Echinochloa crus-galli): 100%
Stellaria media (Efficacy in %) (Stellaria media): 100%
Polygonum convolvulus (Efficacy in %) (Polygonum convolvulus): 100%
Veronica persica (Efficacy in %) (Veronica persica; application rate 20 g/ha): 100%
Viola tricolor (Efficacy in %) (Viola tricolor): 100%
Setaria viridis (Efficacy in %) (Setaria viridis): 100%
Matricaria inodora (Efficacy in %) (Matricaria inodora): 100%
Digitaria sanguinalis (Efficacy in %) (Digitaria sanguinalis): 100%

SMILES: CCOC(=O)CCOC(=O)C(CC(C)C)Sc1cc(-n2c(=O)cc(C(F)(F)F)n(C)c2=O)c(F)cc1Cl (centres unmarked) [I.4-3, 3-Ethoxy-3-oxopropyl 2-({2-chloro-4-fluoro-5-[3-methyl-2,6-dioxo-4-(trifluormethyl)-3,6-dihydropyrimidin-1(2H)-yl]phenyl}sulfanyl)-4-methylpentanoate]
Abutilon theophrasti (Efficacy in %) (Abutilon theophrasti): 100%
Amaranthus retroflexus (Efficacy in %) (Amaranthus retroflexus): 100%
Veronica persica (Efficacy in %) (Veronica persica; application rate 20 g/ha): 80%
Viola tricolor (Efficacy in %) (Viola tricolor): 100%
Setaria viridis (Efficacy in %) (Setaria viridis): 90%
Matricaria inodora (Efficacy in %) (Matricaria inodora): 80%

Oryza sativa (Efficacy in %) (Oryza sativa): 20%
Triticum aestivum (Efficacy in %) (Triticum aestivum): 20%
SMILES: CCCCC(Sc1cc(-n2c(=O)cc(C(F)(F)F)n(C)c2=O)c(F)cc1Cl)C(=O)OCCC(=O)OCC (centres unmarked) [I.47-3]
Abutilon theophrasti (Efficacy in %) (Abutilon theophrasti): 100%
Amaranthus retroflexus (Efficacy in %) (Amaranthus retroflexus): 100%
Echinochloa crus-galli (Efficacy in %) (Echinochloa crus-galli): 80%
Polygonum convolvulus (Efficacy in %) (Polygonum convolvulus): 100%
Veronica persica (Efficacy in %) (Veronica persica; application rate 20 g/ha): 100%
Pharbitis purpurea (Efficacy in %) (Pharbitis purpurea; application rate 20 g/ha): 100%
Viola tricolor (Efficacy in %) (Viola tricolor): 100%
Setaria viridis (Efficacy in %) (Setaria viridis): 100%
Matricaria inodora (Efficacy in %) (Matricaria inodora): 100%
Digitaria sanguinalis (Efficacy in %) (Digitaria sanguinalis): 100%
